In US12672653B2, “Pest management” (priority 2017, dated 2026):
In brackets after ≈: the same amount, converted by molar mass.

Legend:
[1] = system: Dorsal root ganglion (DRG) cells; test: Whole-cell patch-clamp current-clamp recording of dorsal root ganglion cells (membrane potential, action potentials); format: cell-based, Sprague-Dawley rats; conditions: for Normalised No. of Action Potentials @ Vh −50 mV, Mean / Normalised Action Potentials Amplitude, Mean: Control = 100
Procedure: (§1) Dorsal root ganglion (DRG) cells were obtained from young adult male Sprague-Dawley rats weighing 220-250 g. The rats were housed in groups of 4 in an air conditioned room on a 12 hour light/dark cycle with food and water available ad libitum.
(§2) Animals were humanely killed and the lower thoracic and upper lumbar region DRG removed and stored in chilled phosphate buffered saline (PBS). The DRG were carefully trimmed and then digested using 2 mg/mL trypsin (type XII-S) and 2 mg/mL collagenase (type XI), freshly made up in PBS, for 45-60 mins in a shaking water bath at 37° C. Subsequent to extensive washing with PBS and then plating medium (PM; 50:50 mix of DMEM/Hams F12, supplemented with 10% foetal bovine serum, 100 U/mL penicillin and 100 μg/mL streptomycin), careful trituration of the DRG was carried out using sterile fire polished glass pipettes of decreasing diameter and the cells were plated on coated glass coverslips (BD Biosciences, BD Biocoat, poly-D-Lysine), contained in 35 mm tissue culture dishes so that the cells could be easily transferred to the recording chamber mounted on an Olympus IX51 […] microscope for electrophysiological recording. Cells were incubated under standard tissue culture conditions (36° C. in a humidified atmosphere of 5% CO2, 95% air) and were used within 48-72 hours of plating.
(§3) Whole-cell patch-clamp recordings were conducted at room temperature ([…]) using an Axopatch 200B amplifier (Axon Instruments Inc., USA) with 3-7 MΩ electrodes, depending on the patch success rate and recording quality. Data were filtered and digitized appropriately. Current-clamp recordings were performed with pipette solution of the following composition: 140 mM KCl, 0.5 mM EGTA, 5 mM HEPES, 3 mM Mg-ATP and 3 mM Na-GTP (pH 7.3), adjusted to 310 mOsm/L with glucose. The bathing solution contained: 140 mM NaCl, 3 mM KCl, 2 mM MgCl2, 2 mM CaCl2, and 10 mM HEPES (pH 7.3), adjusted to 315 mOsm/L with glucose. Passive membrane properties (e.g. resting membrane potential (Vm)) were monitored during the first few minutes from establishing whole-cell access and periodically during recording. Evoked potential recordings commenced 3-5 minutes after establishing whole-cell configuration.
(§4) Flavesone test solutions were prepared fresh from a stock solution (96.7% w/w) on the day of recording. 100 μL of flavesone composition was mixed with 100 µL of Tween 80 and diluted to 10 mL in artificial cerebrospinal fluid (aCSF) to give a final flavesone concentration of 1%. The pH of the 1% solution was adjusted to 7.3 with 1M NaOH and diluted to 0.5% and 0.25% flavesone concentration with aCSF containing 1% Tween 80 immediately prior to use. Test compounds were applied using a DAD-16VC fast perfusion system (ALA Scientific Instruments, USA) and compared to the results gathered using control flow. The control was aSCF with 1% Tween 80.
(§5) Comparison samples of permethrin were prepared as 100 μM permethrin in […] (DMSO).
(§6) All analysis was conducted using Clampfit (MDS Analytical Technologies) and Excel (Microsoft) software. Statistical comparisons between groups were performed using the Student's t-test with P<0.05 taken to identify a significant difference.

Myzus persicae [2] = test: whole plant or invertebrate; conditions: foliar
Aedes aegypti L3 larvae = test: Mosquito larval topical dose-mortality assay (synergism); format: in vivo; conditions: addition of flavesone
Procedure: The efficacy of a flavesone formulation against mosquito larvae was investigated together with investigation of the potential for synergistic action of flavesone and one or more technical grade insecticides. Dose-mortality assays were performed to evaluate the toxicity of technical grade insecticide, here the synthetic pyrethroid (SP) permethrin at various concentrations (minimum five dose points) alone and co-administered with flavesone at single point dose was performed. Assays were conducted using L3 larvae of the Liverpool (SP susceptible) and Puerto Rico (SP resistant) strains of the yellow fever mosquito, Aedes aegypti maintained in continuous culture at Purdue University, US. Larvae were transferred to a 24 well tissue plate using a wide-bore plastic transfer pipette, 5 larvae per well. The water was gently removed from the well with a 1 mL pipette and an equivalent amount of ddH2O was added. The appropriate volume of test compound was added to each of the four replicate wells per treatment and the plate gently swirled to ensure uniform mixing. The plate was placed in a test or growth chamber under constant conditions of 22-25° C. and about 75-85% relative humidity on a 12 h light/12 hr dark cycle. Assays were scored for the phenotypic endpoint of death/paralysis at 24, 48 and 72 hours post exposure. Each assay incorporated a positive (flavesone) and negative (vehicle only) control, and minimum of four technical replicates per dose of test chemistry. The data reported here represent three biological replicates.
Pilot assays were first employed to determine dose of flavesone (LC50, LC25 or LC10 dose as determined in previous dose-mortality tests) appropriate for synergism assays. […] The Synergistic Ratio (SR) for insecticide+flavesone combination is also shown and the synergistic action evaluated as per the published studies of Ahmed and Matsumura (2012, Journal of Medical Entomology 49(6):1405-10) and Ahmed and Vogel (2015, Acta Tropica 155:1-5).

Myzus persicae [3] = conditions: 96 hours exposure; first bioassay dose-response curve
Musca domestica = test: Knockdown and mortality of houseflies exposed to treated tiles; format: in vivo
Procedure: Each formulation was filled into a hand-held pump sprayer. The treatments were applied to tiles from a distance of 20 cm. The tile was placed on a 0.5 m^2 grid and the entire 0.5 m^2 was sprayed, including the tile, at a rate of 50 mL/m^2. To ensure the correct volume was applied, the pump sprayer was weighed before and after spraying.
The tiles were left for two hours post-treatment to allow the formulation to dry on the tile, before evaluation started.
A control tile that was not treated with any formulation (untreated) was also used.
Ten mixed sex Musca domestica houseflies were placed in a plastic petri dish using a powered aspirator. The petri dish placed over a treated or control tile surface. The petri dish was perforated for ventilation with small holes and a cotton wool plug soaked in sugar solution provided moisture and plugged the insect introduction hole in the petri dish.
The houseflies were constantly exposed to a treated or untreated tile surface. The exposure took place at a temperature of 22±2° C. and about 50% relative humidity (RH).
After 30 minutes exposure, a piece of paper was placed over the tile surface to prevent contact of the houseflies with the treated or untreated tile. The houseflies were held at 22±2° C. and about 50% RH for 24 hours.
Housefly knockdown was noted 15 minutes and 30 minutes after beginning of exposure and 1, 2, 3 and 4 hours after initial exposure.
The above experiment was repeated four times to give five replicates. No statistical analysis was done.

sodium channels = test: Sodium conductance in the DRG (voltage clamp recording); format: cell-based, Sprague-Dawley rats; conditions: for Normalised Na^+ Conductance Amplitude, Mean: Control = 100
Procedure: as §1, §2, §3, §4, §5, §6
Pyrethroids such as permethrin are known to be sodium channel modulators. Analysis of the effects of flavesone and permethrin on sodium conductance in the DRG was examined. […]

[4] = 0.5% flavesone, Table 3, permethrin experiment

With `CC(C)C(=O)C1C(=O)C(C)(C)C(=O)C(C)(C)C1=O` [Flavesone, 1-isobutyroyl-3,3,5,5-tetramethylcyclohexan-2,4,6-trione] the “effect on potassium channels” value [1] was “activates one or more potassium channels”, the “input resistance in DRG neurones” value [1] was “reduced input resistance” and the “Vm (mV) Mean” value ([1]; 0.25% flavesone) was −71.51 mV. For the same compound, the “Δ Vm (mV) Mean” value ([1]; 0.25% flavesone) was −7.80 mV, the “Normalised No. of Action Potentials @ Vh −50 mV, Mean” value ([1]; 0.5% flavesone) was 74.0 and the “Vm (mV) Mean” value ([1]; 0.5% flavesone, Table 2) was −73.54 mV. The “Δ Vm (mV) Mean” value ([1]; 0.5% flavesone, Table 2) was −18.15 mV, the “Vm (mV) Mean” value [1, 4] was −80.56 mV and the “Δ Vm (mV) Mean” value [1, 4] was −19.63 mV. For the same compound, the “Normalised Action Potentials Amplitude, Mean” value ([1]; 0.5% flavesone, Table 5) was 77.72, the “Normalised Action Potentials Amplitude, Mean” value ([1]; 0.5% flavesone, Table 6) was 90.17 and the “Vm (mV) Mean” value ([1]; 1% flavesone) was −83.75 mV. The “Δ Vm (mV) Mean” value ([1]; 1% flavesone) was −29.82 mV, the “Normalised No. of Action Potentials @ Vh −50 mV, Mean” value ([1]; 1% flavesone) was 65.8 and the “Normalised Action Potentials Amplitude, Mean” value ([1]; 1% flavesone, Table 5) was 28.35. The “Normalised Action Potentials Amplitude, Mean” value ([1]; 1% flavesone, Table 6) was 91.50, the “number of action potentials” value ([1]; flavesone, Table 4) was “slightly reduced” and the “amplitude of the action potentials” value ([1]; flavesone, Table 5) was “reduced”. The action potential threshold ([1]; flavesone, Table 6) was “no significant effect”, the “resting potential from current-voltage relations” value ([1]; in the presence of flavesone) was “about −84 mV” and the “mean resting potential (Vm)” value ([1]; reduced from about −62 mV by flavesone) was “about −84 mV”. It also gave a mortality at 1200 µg/mL (Myzus persicae [2]; 96 h) of 10.9%, a mortality at 1800 µg/mL (Myzus persicae [2]; 96 h) of 25.7% and an LC50 (Myzus persicae [2]; read-out: LC50 (95% CI's)) of 2730 µg/mL (≈ 10.8 mM). The larval phenotype (Aedes aegypti L3 larvae) was “unambiguous “lethal” larval phenotype”, the LC15 (Myzus persicae [3]) was 1200 mg a.i./L and the LC30 (Myzus persicae [3]) was 1800 mg a.i./L. For the same compound, the mortality (Musca domestica; both rates (200 mg/mL & 100 mg/mL), 24 hours post initial exposure) was 100%, the “knockdown of houseflies” value (Musca domestica; rates of 200 mg/mL & 100 mg/mL, after 15 minutes exposure) was 100% and the “effect on sodium channels” value (sodium channels) was “no effect on sodium channels”. For the same compound, the “area under the curve (AUC)” value (sodium channels; 0.5% flavesone, 1% flavesone versus control and wash) was “no significant difference”, the “Normalised Na^+ Conductance Amplitude, Mean” value (sodium channels; 0.5% flavesone) was 84.65 and the “Normalised Na^+ Conductance Amplitude, Mean” value (sodium channels; 1% flavesone) was 77.56. The sodium conductance amplitude (sodium channels; flavesone, Table 10) was “no significant effect”, the channel inactivation/deactivation (sodium channels; voltage clamp recording configuration) was “no effect” and the “reduction of sodium channel conductance” value (sodium channels; voltage clamp recording configuration, not significantly different to control) was “approximately 20%”.
